From the supplement of paper PMC11061612

What was measured:
Experiment in all cases: Bliss excess, mean over the matrix (fraction); higher = more synergy
[1] = tested on: A3-KAW (B-Cell Non-Hodgkin's Lymphoma)
How it was run: (§1)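 Cell lines grown in DMEM/F12 or RPMI with 10% FBS were plated in 1536-well plates and held 24 hours at 37°C, 5% CO2 before 72 hours of exposure to two-drug dose matrices, with DMSO typically at 0.2%. CellTiter-Glo 2.0 luminescence gave viability, which was converted to inhibition. Vehicle wells were set to 0 and blank wells to 1. Combination Emax is the second-highest inhibition in the matrix, and Bliss excess is the observed combination effect minus the expected EA + EB − EA·EB, where EA and EB are the single-agent effects.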

[2] = tested on: A498 (Kidney Carcinoma)
How it was run: as §1

[3] = tested on: A549 (Lung Adenocarcinoma)
How it was run: as §1

[4] = tested on: BICR22 (Oral Cavity Carcinoma)
How it was run: as §1

[5] = tested on: CAPAN-2 (Pancreatic Carcinoma)
How it was run: as §1

[6] = tested on: CCK-81 (Colorectal Carcinoma)
How it was run: as §1

[7] = tested on: COLO-824 (Breast Carcinoma)
How it was run: as §1

[8] = tested on: COR-L311 (Small Cell Lung Carcinoma)
How it was run: as §1

[9] = tested on: ECC10 (Gastric Carcinoma)
How it was run: as §1

[10] = tested on: FU97 (Gastric Carcinoma)
How it was run: as §1

[11] = tested on: Hs-445 (Non-Cancerous)
How it was run: as §1

[12] = tested on: JSC-1 (B-Cell Non-Hodgkin's Lymphoma)
How it was run: as §1

[13] = tested on: KARPAS-422 (B-Cell Non-Hodgkin's Lymphoma)
How it was run: as §1

[14] = tested on: LN-405 (Glioblastoma)
How it was run: as §1

[15] = tested on: NCI-H1650 (Lung Adenocarcinoma)
How it was run: as §1

[16] = tested on: NCI-H1666 (Lung Adenocarcinoma)
How it was run: as §1

[17] = tested on: NCI-H64 (Small Cell Lung Carcinoma)
How it was run: as §1

[18] = tested on: ONS-76 (Other Solid Carcinomas)
How it was run: as §1

[19] = tested on: PA-1 (Ovarian Carcinoma)
How it was run: as §1

[20] = tested on: SK-MES-1 (Squamous Cell Lung Carcinoma)
How it was run: as §1

SMILES	Bliss excess [1]	Bliss excess [2]	Bliss excess [3]	Bliss excess [4]	Bliss excess [5]	Bliss excess [6]	Bliss excess [7]	Bliss excess [8]	Bliss excess [9]	Bliss excess [10]	Bliss excess [11]	Bliss excess [12]	Bliss excess [13]	Bliss excess [14]	Bliss excess [15]	Bliss excess [16]	Bliss excess [17]	Bliss excess [18]	Bliss excess [19]	Bliss excess [20]
Cc1c2c(nn1C)CSCc1cc(n(C)n1)CSc1cc(c3ccccc3c1)OCCCc1c(C(=O)O)n(C)c3c-2c(Cl)ccc13 [AZD5991] + CN(C)CCCOc1ccc(-c2ccc3ncc4c(c3c2)n(C2CCOCC2)c(=O)n4C)cn1 [AZD0156] (first compound max 1 µM, 7x7, partner max 1 µM)	-0.0252	-0.0274	-0.026	0.016	0.0062	0.0379	-0.004	-0.0088	-0.0158	-0.058	-0.106	-0.0081	-0.0675	-0.0026	-0.0398	0.0068	-0.0708	-0.0291	0.004	-0.0029
Cc1c2c(nn1C)CSCc1cc(n(C)n1)CSc1cc(c3ccccc3c1)OCCCc1c(C(=O)O)n(C)c3c-2c(Cl)ccc13 [AZD5991] + C[C@@H]1COCCN1C2=NC(=NC(=C2)C3(CC3)[S@](=N)(=O)C)C4=C5C=CNC5=NC=C4 [AZD6738] (first compound max 1 µM, 7x7, partner max 10 µM)	0.0161	0.107	0.0007	0.0224	0.0543	0.0173	-0.009	0.0018	0.0683	-0.0064	-0.0064	0.018	-0.0209	0.0493	0.0392	0.0156	0.0193	-0.0017	0.0702	-0.0119
Cc1c2c(nn1C)CSCc1cc(n(C)n1)CSc1cc(c3ccccc3c1)OCCCc1c(C(=O)O)n(C)c3c-2c(Cl)ccc13 [AZD5991] + C[C@@H](Nc1cc(F)cc(F)c1)c1cc(C(=O)N(C)C)cc2c(=O)cc(N3CCOCC3)oc12 [AZD8186] (first compound max 1 µM, 7x7, partner max 3 µM)	-0.0084	-0.0252	0.01	-0.0014	0.023	0.0103	0.0043	-0.0098	0.024	0.0594	-0.0177	-0.0289	-0.0143	0.028	0.0221	-0.0359	-0.0067	-0.0517	0.049	0.052
Cc1c2c(nn1C)CSCc1cc(n(C)n1)CSc1cc(c3ccccc3c1)OCCCc1c(C(=O)O)n(C)c3c-2c(Cl)ccc13 [AZD5991] + Cc1cc2ncnn2cc1Nc1ncc2c(n1)n(C1CCOCC1)c(=O)n2C [AZD7648] (first compound max 1 µM, 7x7, partner max 10 µM)	-0.0101	-0.0249	-0.111	0.0158	0.0141	-0.0103	-0.0187	0.0101	-0.0409	-0.044	-0.0109	-0.0499	-0.0008	-0.0439	-0.0408	-0.0666	-0.0186	-0.0236	-0.0774	-0.0471
Cc1c2c(nn1C)CSCc1cc(n(C)n1)CSc1cc(c3ccccc3c1)OCCCc1c(C(=O)O)n(C)c3c-2c(Cl)ccc13 [AZD5991] + Cn1cnc2c(F)c(Nc3ccc(Br)cc3Cl)c(C(=O)NOCCO)cc21 [Selumetinib] (first compound max 1 µM, 7x7, partner max 3 µM)	0.045	0.0133	-0.0344	0.127	0.0129	0.009	-0.0049	-0.0212	0.0176	-0.0609	0.0106	0.027	-0.0157	0.003	-0.0083	0.0499	-0.026	0.0319	0.0085	0.0132
C[C@@H]1COCCN1c1cc(C2([S@](C)(=N)=O)CC2)nc(-c2ccnc3[nH]ccc23)n1 [AZD6738] + O=C(c1cc(Cc2n[nH]c(=O)c3ccccc23)ccc1F)N1CCN(C(=O)C2CC2)CC1 [Olaparib] (first compound max 10 µM, 7x7, partner max 10 µM)	-0.0085	-0.0403	0.0273	0.003	-0.0255	-0.0049	-0.0314	-0.0507	0.0666	0.023	-0.0067	-0.0254	-0.0539	0.0005	-0.0152	0.0073	-0.0686	-0.0284	0.0046	-0.0324
Cc1cc2ncnn2cc1Nc1ncc2c(n1)n(C1CCOCC1)c(=O)n2C [AZD7648] + C=CCn1c(=O)c2cnc(Nc3ccc(N4CCN(C)CC4)cc3)nc2n1-c1cccc(C(C)(C)O)n1 [AZD1775] (first compound max 10 µM, partner max 1 µM)	0.0521	0.0207	-0.0718	-0.0323	0.0132	0.0285	-0.0448	-0.119	0.0498	0.0004	-0.0501	-0.0166	-0.187	-0.0402	0.0097	0.0305	-0.0585	-0.0046	-0.0024	0.0167
Cc1cc2ncnn2cc1Nc1ncc2c(n1)n(C1CCOCC1)c(=O)n2C [AZD7648] + CCN(CCO)CCCOc1ccc2c(Nc3cc(CC(=O)Nc4cccc(F)c4)[nH]n3)ncnc2c1 [AZD2811] (first compound max 10 µM, 7x7, partner max 1 µM)	0.0762	-0.0049	-0.0025	0.0239	-0.0525	0.0699	0.0116	-0.0806	-0.047	-0.0667	0.0394	0.0813	-0.0417	-0.0206	0.0142	-0.0087	0.0392	0.0443	0.0239	-0.0011
Cc1cc2ncnn2cc1Nc1ncc2c(n1)n(C1CCOCC1)c(=O)n2C [AZD7648] + CN(C)CCCOc1ccc(-c2ccc3ncc4c(c3c2)n(C2CCOCC2)c(=O)n4C)cn1 [AZD0156] (first compound max 10 µM, 7x7, partner max 1 µM)	0.162	-0.0212	-0.0192	-0.0192	-0.0168	-0.0003	-0.0145	-0.054	0.0025	-0.0915	-0.0388	0.0412	-0.138	-0.0215	-0.0133	-0.0072	-0.0367	-0.0014	-0.0117	0.0394
Cc1cc2ncnn2cc1Nc1ncc2c(n1)n(C1CCOCC1)c(=O)n2C [AZD7648] + C[C@@H]1COCCN1C2=NC(=NC(=C2)C3(CC3)[S@](=N)(=O)C)C4=C5C=CNC5=NC=C4 [AZD6738] (first compound max 10 µM, 7x7, partner max 10 µM)	-0.034	0.0313	-0.0282	0.0114	0.022	0.0178	0.0794	-0.016	0.0582	-0.0017	0.001	0.0038	-0.0856	-0.0881	0.0308	0.0034	-0.0003	-0.0282	-0.0509	-0.0084
Cc1cc2ncnn2cc1Nc1ncc2c(n1)n(C1CCOCC1)c(=O)n2C [AZD7648] + O=C(c1cc(Cc2n[nH]c(=O)c3ccccc23)ccc1F)N1CCN(C(=O)C2CC2)CC1 [Olaparib] (first compound max 10 µM, 7x7, partner max 10 µM)	-0.0107	-0.0268	0.0613	-0.0548	-0.0757	-0.0546	-0.0115	-0.126	-0.0305	-0.0879	0.0006	-0.0148	-0.0358	-0.0421	-0.0494	-0.0471	-0.0384	-0.0419	-0.0072	-0.0323
NC1(C(=O)N[C@@H](CCO)c2ccc(Cl)cc2)CCN(c2ncnc3[nH]ccc23)CC1 [Capivasertib] + CC(=O)c1c(C)c2cnc(Nc3ccc(N4CCNCC4)cn3)nc2n(C2CCCC2)c1=O [Palbociclib] (first compound max 10 µM, 7x7, partner max 10 µM)	0.0548	-0.0294	-0.103	-0.0329	-0.0164	-0.0025	-0.0495	-0.0489	-0.011	-0.0168	-0.0616	-0.0107	-0.012	-0.0295	-0.0223	0.0086	-0.0332	0.027	0.0288	0.0137
NC1(C(=O)N[C@@H](CCO)c2ccc(Cl)cc2)CCN(c2ncnc3[nH]ccc23)CC1 [Capivasertib] + CC(C)n1c(=O)n(C)c2cnc3cc(F)c(-c4ccc(OCCCN5CCCCC5)nc4)cc3c21 [AZD1390] (first compound max 10 µM, 7x7, partner max 0.3 µM)	0.0088	-0.0632	-0.0678	-0.018	-0.0651	-0.0514	-0.0137	-0.0564	-0.0231	-0.0099	-0.0763	-0.0888	-0.0685	-0.0912	-0.0219	-0.0285	-0.0284	-0.0894	-0.102	-0.0874
